# Assay results from PubChem BioAssay (NCI).
#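 All cell lines were grown in 96-well plates and treated with compound for 48 hours. GI50 marks 50% less growth. TGI marks complete inhibition of growth.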
# What was measured:
# Test in all cases: DTP human tumour cell line panel, 48 h
# A549 NSCLC = test system: A549 NSCLC
# HCT-116 colon = test system: HCT-116 colon
# OVCAR-3 ovarian = test system: OVCAR-3 ovarian
# SK-MEL-2 melanoma = test system: SK-MEL-2 melanoma
# A498 renal = test system: A498 renal
# M14 melanoma = test system: M14 melanoma
# NCI-H226 lung = test system: NCI-H226 lung
# HCC-2998 colon = test system: HCC-2998 colon
# HL-60(TB) leukemia = test system: HL-60(TB) leukemia
# SF-295 CNS = test system: SF-295 CNS
# 786-0 renal = test system: 786-0 renal
# CCRF-CEM leukemia = test system: CCRF-CEM leukemia
# MDA-MB-231 breast = test system: MDA-MB-231 breast
# HS 578T breast = test system: HS 578T breast
# NCI-H460 lung = test system: NCI-H460 lung
# SK-MEL-28 melanoma = test system: SK-MEL-28 melanoma
# MCF7 breast = test system: MCF7 breast
# U251 CNS = test system: U251 CNS
# SK-OV-3 ovarian = test system: SK-OV-3 ovarian
# MALME-3M melanoma = test system: MALME-3M melanoma
# UO-31 renal = test system: UO-31 renal
# COLO 205 colon = test system: COLO 205 colon
# SW-620 colon = test system: SW-620 colon
# TK-10 renal = test system: TK-10 renal
# SR leukemia = test system: SR leukemia
# SNB-19 CNS = test system: SNB-19 CNS
# K-562 leukemia = test system: K-562 leukemia
# MOLT-4 leukemia = test system: MOLT-4 leukemia
# KM12 colon = test system: KM12 colon
# HOP-92 NSCLC = test system: HOP-92 NSCLC
# NCI-H23 lung = test system: NCI-H23 lung
# NCI/ADR-RES ovarian = test system: NCI/ADR-RES ovarian
# ACHN renal = test system: ACHN renal
# SN12C renal = test system: SN12C renal
# OVCAR-4 ovarian = test system: OVCAR-4 ovarian
# RXF 393 renal = test system: RXF 393 renal
# BT-549 breast = test system: BT-549 breast
# OVCAR-8 ovarian = test system: OVCAR-8 ovarian
# PC-3 prostate = test system: PC-3 prostate
# HT29 colon = test system: HT29 colon
# LOX IMVI melanoma = test system: LOX IMVI melanoma
# UACC-62 melanoma = test system: UACC-62 melanoma
# OVCAR-5 ovarian = test system: OVCAR-5 ovarian
# CAKI-1 renal = test system: CAKI-1 renal
# IGROV1 ovarian = test system: IGROV1 ovarian
# SF-539 CNS = test system: SF-539 CNS
# HCT-15 colon = test system: HCT-15 colon
# NCI-H522 lung = test system: NCI-H522 lung
# SF-268 CNS = test system: SF-268 CNS
# HOP-62 NSCLC = test system: HOP-62 NSCLC
# T-47D breast = test system: T-47D breast
# SK-MEL-5 melanoma = test system: SK-MEL-5 melanoma
# EKVX NSCLC = test system: EKVX NSCLC
# SNB-75 CNS = test system: SNB-75 CNS
# UACC-257 melanoma = test system: UACC-257 melanoma
# RPMI-8226 leukemia = test system: RPMI-8226 leukemia
# DU-145 prostate = test system: DU-145 prostate
smiles,measurement,setting,value
N#Cc1ccc(/C=N/NC(=O)c2[nH]c3ccc(Br)cc3c2-c2ccccc2)s1,GI50,A549 NSCLC,379 nM
same,TGI,A549 NSCLC,13 µM
same,GI50,HCT-116 colon,118 nM
same,TGI,HCT-116 colon,11.1 µM
same,GI50,OVCAR-3 ovarian,367 nM
same,TGI,OVCAR-3 ovarian,15.7 µM
same,GI50,SK-MEL-2 melanoma,451 nM
same,TGI,SK-MEL-2 melanoma,16.2 µM
same,GI50,A498 renal,6.54 µM
same,TGI,A498 renal,22.5 µM
same,GI50,M14 melanoma,235 nM
same,TGI,M14 melanoma,14.6 µM
same,GI50,NCI-H226 lung,579 nM
same,TGI,NCI-H226 lung,6.27 µM
same,GI50,HCC-2998 colon,488 nM
same,TGI,HCC-2998 colon,9.65 µM
same,GI50,HL-60(TB) leukemia,52.9 nM
same,TGI,HL-60(TB) leukemia,617 nM
same,GI50,SF-295 CNS,41.4 nM
same,TGI,SF-295 CNS,2330 nM
same,GI50,786-0 renal,395 nM
same,TGI,786-0 renal,13.2 µM
same,GI50,CCRF-CEM leukemia,173 nM
same,TGI,CCRF-CEM leukemia,> 100 µM
same,GI50,MDA-MB-231 breast,545 nM
same,TGI,MDA-MB-231 breast,4 µM
same,GI50,HS 578T breast,616 nM
same,TGI,HS 578T breast,24.7 µM
same,GI50,NCI-H460 lung,340 nM
same,TGI,NCI-H460 lung,2250 nM
same,GI50,SK-MEL-28 melanoma,847 nM
same,TGI,SK-MEL-28 melanoma,> 37.4 µM
same,GI50,MCF7 breast,110 nM
same,TGI,MCF7 breast,5.87 µM
same,GI50,U251 CNS,312 nM
same,TGI,U251 CNS,5.79 µM
same,GI50,SK-OV-3 ovarian,993 nM
same,TGI,SK-OV-3 ovarian,15.3 µM
same,GI50,MALME-3M melanoma,564 nM
same,TGI,MALME-3M melanoma,24.9 µM
same,GI50,UO-31 renal,275 nM
same,TGI,UO-31 renal,17.6 µM
same,GI50,COLO 205 colon,1690 nM
same,TGI,COLO 205 colon,4.86 µM
same,GI50,SW-620 colon,182 nM
same,TGI,SW-620 colon,14.9 µM
same,GI50,TK-10 renal,1930 nM
same,TGI,TK-10 renal,23.8 µM
same,GI50,SR leukemia,99.2 nM
same,TGI,SR leukemia,> 38.8 µM
same,GI50,SNB-19 CNS,439 nM
same,TGI,SNB-19 CNS,16.7 µM
same,GI50,K-562 leukemia,109 nM
same,TGI,K-562 leukemia,> 100 µM
same,GI50,MOLT-4 leukemia,243 nM
same,TGI,MOLT-4 leukemia,30.2 µM
same,GI50,KM12 colon,793 nM
same,TGI,KM12 colon,18.7 µM
same,GI50,HOP-92 NSCLC,645 nM
same,TGI,HOP-92 NSCLC,11.6 µM
same,GI50,NCI-H23 lung,254 nM
same,TGI,NCI-H23 lung,12 µM
same,GI50,NCI/ADR-RES ovarian,118 nM
same,TGI,NCI/ADR-RES ovarian,2090 nM
same,GI50,ACHN renal,277 nM
same,TGI,ACHN renal,9.75 µM
same,GI50,SN12C renal,227 nM
same,TGI,SN12C renal,6.33 µM
same,GI50,OVCAR-4 ovarian,783 nM
same,TGI,OVCAR-4 ovarian,30.2 µM
same,GI50,RXF 393 renal,222 nM
same,TGI,RXF 393 renal,487 nM
same,GI50,BT-549 breast,250 nM
same,TGI,BT-549 breast,1330 nM
same,GI50,OVCAR-8 ovarian,204 nM
same,TGI,OVCAR-8 ovarian,2190 nM
same,GI50,PC-3 prostate,304 nM
same,TGI,PC-3 prostate,12.3 µM
same,GI50,HT29 colon,148 nM
same,TGI,HT29 colon,6.9 µM
same,GI50,LOX IMVI melanoma,309 nM
same,TGI,LOX IMVI melanoma,1430 nM
same,GI50,UACC-62 melanoma,139 nM
same,TGI,UACC-62 melanoma,6.99 µM
same,GI50,OVCAR-5 ovarian,439 nM
same,TGI,OVCAR-5 ovarian,24.6 µM
same,GI50,CAKI-1 renal,374 nM
same,TGI,CAKI-1 renal,17.2 µM
same,GI50,IGROV1 ovarian,221 nM
same,TGI,IGROV1 ovarian,9.1 µM
same,GI50,SF-539 CNS,87.8 nM
same,TGI,SF-539 CNS,543 nM
same,GI50,HCT-15 colon,129 nM
same,TGI,HCT-15 colon,9.51 µM
same,GI50,NCI-H522 lung,78.5 nM
same,TGI,NCI-H522 lung,262 nM
same,GI50,SF-268 CNS,1580 nM
same,TGI,SF-268 CNS,> 64.9 µM
same,GI50,HOP-62 NSCLC,519 nM
same,TGI,HOP-62 NSCLC,11.6 µM
same,GI50,T-47D breast,2460 nM
same,TGI,T-47D breast,27.3 µM
same,GI50,SK-MEL-5 melanoma,272 nM
same,TGI,SK-MEL-5 melanoma,1230 nM
same,GI50,EKVX NSCLC,1210 nM
same,TGI,EKVX NSCLC,26.3 µM
same,GI50,SNB-75 CNS,630 nM
same,TGI,SNB-75 CNS,5.36 µM
same,GI50,UACC-257 melanoma,344 nM
same,TGI,UACC-257 melanoma,12.9 µM
same,GI50,RPMI-8226 leukemia,149 nM
same,TGI,RPMI-8226 leukemia,> 20.9 µM
same,GI50,DU-145 prostate,365 nM
same,TGI,DU-145 prostate,13.7 µM
